Measurements taken from publication PMC10889512, “Pyrimidine Schiff Bases: Synthesis, Structural Characterization and Recent Studies on Biological Activities” (International Journal of Molecular Sciences, 2024).
In brackets after ≈: the same amount, converted by molar mass. Where two headings read alike, the source gives them in different places.

Columns and labels:
AGS cell line = tested on: AGS cell line; parameters: method as in Suttie et al. 87; conditions: ref Suttie et al. 87; cited from earlier work
A172 cell line = tested on: A172 cell line; parameters: method as in PMID 30405885; conditions: A172, 72 h, 200 µM; cited from earlier work
RPTEC cell line = experiment: Neutral red uptake assay on RPTEC cell line; type: cell-based; conditions: 100 µM, 72 h
Procedure: In order to evaluate the cytotoxic properties of the tested compounds (4a–d), a neutral red uptake (NR) assay was performed on the RPTEC cell line. Four concentrations were used: 10, 100, 250, and 500 µM of each compound. The compound 4a was rejected from further investigation on cancer cell lines due to its high cytotoxicity (53 and 67% at 100 and 250 µM, respectively). Furthermore, at a concentration of 500 µM, the compound 4a crystallized, which influenced the obtained results by attenuating cytotoxic activity. Cell lines were plated in 96-well plates at a density of 1 × 10^4 cells/well. After 24 h incubation, which allowed the cells to attach and start to proliferate, the culture media were replaced with 4a–d dissolved in the appropriate medium at concentrations of 1, 10, 50, 100, 150 and 200 µM. […] Negative (1% DMSO in medium) and positive (1 µM staurosporine) controls were also included. Plates were incubated at 37 °C for 24, 48, and 72 h before the neutral red uptake assay. […] A 100 µL quantity of destain solution consisting of 50% ethanol, 1% glacial acetic acid, and deionized water was added to each well. […] Absorption was measured at 540 nm excitation. The cells’ viability was calculated by comparing results from experimental sets with negative controls according to the formula: % viability=ODtest substance−ODblind/ODnegative control−ODblind×100

E. coli 25922 = experiment: Antimicrobial activity assay, microdilution; type: cell-based, Escherichia coli; conditions: concentration range from 0.5 µg/mL to 256 µg/mL
Procedure: (§1) In vitro antimicrobial and antifungal activity was screened using microdilution and modified Richard’s medium. The assay was performed for compounds 4a, 4b, 4c, and 4d with seven reference microbial strains from ATTC (E. coli 25922, S. aureus 43300, K. pneumoniae 700603, A. baumannii 19606, P. aeruginosa 27853, E. faecalis 29212, and C. albicans 10231).
(§2) Seven reference strains from the ATCC collection (Escherichia coli 25922, Staphylococcus aureus 43300, Klebsiella pneumoniae 13883, Acinetobacter baumannii 19606, Pseudomonas aeruginosa 27853, Enterococcus faecalis 29212, and Candida albicans 10231) were used. The assay was performed according to a modified version of Richard et al.’s protocol and ISO standards 20776-1:2019 and 16256:2021 [78, 79]. Microdilution with spectrophotometric measurement was used to calculate MIC50 (minimal inhibitory concentration which decreased the microorganisms’ viability to 50%) values. Briefly, compounds were prepared 100× concentrated in DMSO, and during the whole experiment, they were diluted to 1× with TSB. Serial dilutions of tested compounds were made directly on plates at a concentration range of 0.5 to 256 µg/mL. Microorganisms were incubated for 24 h at 37 °C (bacteria) or 25 °C (yeast) on Petri dishes with TSA. The bacteria/yeast suspensions were prepared at a density 5 × 10^5 CFU/mL (for bacteria) or 0.5–2.5 × 10^5 CFU/mL (for yeast) with TSB. Also, appropriate controls were contained in the experiment: the positive control consisted of a specific strain in TSB, and the negative control was TSB alone. To ensure that used strains were not modified and were still responding to antibacterial/antifungal compounds established by EUCAST, additional tests were conducted with levofloxacin, gentamicin, and amphotericin B. Microplates were incubated on a shaker for 24 h at 37 ± 1 °C or 25 ± 1 °C for the bacteria and yeast strains, respectively. After the incubation, spectrophotometric measurement was performed at 580 nm. MIC50 was calculated by comparing the results obtained for experimental sets with positive controls. Next, 50 µL aliquots of 1% (m/v) TTC solution were added to each well. The plates were incubated on the shaker for 24 h at 37/25 °C. In living microbial cells, colourless TTC is converted into red formazan crystals, which allows for visual observation and MBC/MFC (minimal bactericidal/fungicidal concentration) value assessment.

S. aureus 43300 = experiment: Antimicrobial activity assay, microdilution; type: cell-based, Staphylococcus aureus; conditions: concentration range from 0.5 µg/mL to 256 µg/mL
Procedure: as §1, §2

K. pneumoniae 700603 = experiment: Antimicrobial activity assay, microdilution; type: cell-based, Klebsiella pneumoniae; conditions: concentration range from 0.5 µg/mL to 256 µg/mL
Procedure: as §1, §2

A. baumannii 19606 = experiment: Antimicrobial activity assay, microdilution; type: cell-based, Acinetobacter baumannii; conditions: concentration range from 0.5 µg/mL to 256 µg/mL
Procedure: as §1, §2

P. aeruginosa 27853 = experiment: Antimicrobial activity assay, microdilution; type: cell-based, Pseudomonas aeruginosa; conditions: concentration range from 0.5 µg/mL to 256 µg/mL
Procedure: as §1, §2

E. faecalis 29212 = experiment: Antimicrobial activity assay, microdilution; type: cell-based, Enterococcus faecalis; conditions: concentration range from 0.5 µg/mL to 256 µg/mL
Procedure: as §1, §2

C. albicans 10231 = experiment: Antifungal activity assay, microdilution; type: cell-based, Candida albicans; conditions: concentration range from 0.5 µg/mL to 256 µg/mL
Procedure: as §1, §2

A172 [1] = experiment: Neutral red uptake assay on A172; type: cell-based, human; conditions: Homo sapiens, A 172, 72 h, A172, 72 h treatment
Procedure: (§3) Based on the results obtained for the RPTEC cell line, the following concentrations of 4b–d were chosen to be applied to neoplastic cell lines: 0.1, 1, 10, 25, 50, and 100 µM. A172, AGS, CaCo-2, HeLa, and HepG2 cancer cell lines were used to perform a neutral red uptake assay. The obtained results were compared with a negative control (cell lines incubated without tested compounds), and half-maximal inhibitory concentration (IC50) values were calculated. Cell lines were plated in 96-well plates at a density of 1 × 10^4 cells/well. After 24 h incubation, which allowed the cells to attach and start to proliferate, the culture media were replaced with 4a–d dissolved in the appropriate medium at concentrations of 1, 10, 50, 100, 150 and 200 µM. […] Negative (1% DMSO in medium) and positive (1 µM staurosporine) controls were also included. Plates were incubated at 37 °C for 24, 48, and 72 h before the neutral red uptake assay. The neutral red uptake assay was performed as described by Repetto et al.. Briefly, the medium from all wells was discarded, the attached cells were washed with 100 µL PBS, and then 100 µL of neutral red working solution in medium (40 µg/mL) was added to each well. The neutral red solution was incubated overnight in the same conditions as the cells and centrifuged before being added to the cells. The plates were incubated for at least 2 h at 37 °C, 5% CO2, in a humidified atmosphere. Next, the neutral red medium was removed, and the cells were washed with 100 µL PBS. A 100 µL quantity of destain solution consisting of 50% ethanol, 1% glacial acetic acid, and deionized water was added to each well. Plates were incubated for 30 min with constant shaking on a horizontal shaker at 37 °C. Absorption was measured at 540 nm excitation. The cells’ viability was calculated by comparing results from experimental sets with negative controls according to the formula: % viability=ODtest substance−ODblind/ODnegative control−ODblind×100

AGS = experiment: Neutral red uptake assay on AGS; type: cell-based, human; conditions: 72 h treatment
Procedure: as §3

CaCo-2 = experiment: Neutral red uptake assay on CaCo-2; type: cell-based; conditions: Homo sapiens; CaCo-2, 72 h treatment
Procedure: as §3

HeLa = experiment: Neutral red uptake assay on HeLa; type: cell-based; conditions: Homo sapiens, 72 h treatment
Procedure: as §3

HepG2 = experiment: Neutral red uptake assay on HepG2; type: cell-based; conditions: Homo sapiens; HepG2, 72 h treatment
Procedure: as §3

A172 [2] = tested on: A172; parameters: method as in PMID 33921108; conditions: cited from earlier work
Enterococcus faecalis = tested on: Enterococcus faecalis; parameters: method as in PMID 33921108; conditions: cited from earlier work

melting point [°C]	Compound	MIC and MBC/MFC activity (E. coli 25922)	MIC and MBC/MFC activity (S. aureus 43300)	MIC and MBC/MFC activity (K. pneumoniae 700603)	MIC and MBC/MFC activity (A. baumannii 19606)	MIC and MBC/MFC activity (P. aeruginosa 27853)	MIC and MBC/MFC activity (E. faecalis 29212)	MIC and MBC/MFC activity (C. albicans 10231)	further results
–	O=c1[nH]cc(F)c(=O)[nH]1 [5-fluorouracil]	–	–	–	–	–	–	–	LD50 (AGS cell line): 153.7 µM
–	Cn1nnc2c(C(N)=O)ncn2c1=O [TMZ, temozolomide]	–	–	–	–	–	–	–	cell viability (A172 cell line): below 70%
178	Cc1nc(-c2ccccc2)nc(Nc2ccc(F)cc2)c1C=Nc1ccc(F)cc1 [compound 4a, N-(4-fluorophenyl)-5-{[(4-fluorophenyl)imino]methyl}-6-methyl-2-phenylpyrimidin-4-amine]	Neither MIC nor MBC/MFC activity was observed	Neither MIC nor MBC/MFC activity was observed	Neither MIC nor MBC/MFC activity was observed	Neither MIC nor MBC/MFC activity was observed	Neither MIC nor MBC/MFC activity was observed	Neither MIC nor MBC/MFC activity was observed	Neither MIC nor MBC/MFC activity was observed	cytotoxicity (RPTEC cell line): 53%
167 to 169	COc1ccccc1N=Cc1c(C)nc(-c2ccccc2)nc1Nc1ccc(F)cc1 [compound 4c, N-(4-fluorophenyl)-6-methyl-2-phenyl-5-{[(2-methoxyphenyl)imino]methyl}pyrimidin-4-amine]	Neither MIC nor MBC/MFC activity was observed	Neither MIC nor MBC/MFC activity was observed	Neither MIC nor MBC/MFC activity was observed	Neither MIC nor MBC/MFC activity was observed	Neither MIC nor MBC/MFC activity was observed	Neither MIC nor MBC/MFC activity was observed	Neither MIC nor MBC/MFC activity was observed	IC50 (A172 [1]): > 100 µM; IC50 (AGS; Homo sapiens, 72 h): > 100 µM; IC50 (CaCo-2): > 100 µM; IC50 (HeLa): > 100 µM; IC50 (HepG2): > 100 µM
210	Cc1nc(-c2ccccc2)nc(Nc2ccc(F)cc2)c1C=Nc1ccc(Cl)c(C(F)(F)F)c1 [compound 4d, 5-[{[4-chloro-3-(trifluoromethyl)phenyl]imino}methyl]-N-(4-fluorophenyl)-6-methyl-2-phenylpyrimidin-4-amine]	Neither MIC nor MBC/MFC activity was observed	Neither MIC nor MBC/MFC activity was observed	Neither MIC nor MBC/MFC activity was observed	Neither MIC nor MBC/MFC activity was observed	Neither MIC nor MBC/MFC activity was observed	Neither MIC nor MBC/MFC activity was observed	Neither MIC nor MBC/MFC activity was observed	IC50 (A172 [1]): > 100 µM; IC50 (AGS): > 100 µM; IC50 (AGS; Homo sapiens, 72 h): 190 µM; IC50 (CaCo-2): > 100 µM; IC50 (HeLa): > 100 µM; IC50 (HepG2): > 100 µM
–	CCOc1ccc(N=Cc2c(C)nc(-c3ccccc3)nc2Nc2ccc(F)cc2)cc1 [compound III, 5-[(4-ethoxyphenyl)imino]methyl-N-(4-fluorophenyl)-6-methyl-2-phenylpyrimidin-4-amine]	–	–	–	–	–	–	–	IC50 (A172 [2]): 526 µM; MBC (Enterococcus faecalis): 32 µg/mL (≈ 75 µM); MIC (Enterococcus faecalis): 16 µg/mL (≈ 37.5 µM)
–	COc1cccc2c1C(=O)c1c(O)c3c(c(O)c1C2=O)C[C@@](O)(C(=O)CO)C[C@@H]3O[C@H]1C[C@H](N)[C@@H](O)[C@H](C)O1 [epirubicin]	–	–	–	–	–	–	–	LD50 (AGS cell line): 0.23 µM
